Assay results taken from patent US20200392116A1, “SUBSTITUTED HETEROCYCLES AS c-MYC TARGETING AGENTS” (NORTHWESTERN UNIVERSITY, priority 2019, published 2020).
Like-named read-outs stand apart in the source and are kept apart here.

Tests used:
[1] = test system: MYC transcriptional activity (c-Myc E-box-luciferase reporter, MycCap cells); assay: MYC E-box luciferase reporter assay; type: cell-based; conditions: Mus musculus, Myc-CaP
Procedure: To test the compounds, we evaluated the in silico hits in a MYC E-Box luciferase reporter assay to measure the effects of these compounds (referred to as Min-1 to Min-32) on MYC transcriptional activity. […] (See FIG. 2).
MycCap cells stably expressing luciferase with CMV promoter (MycCap-luc) or c-Myc E-box-luciferase reporter (MycCap Ebox-luc) were plated at 10000 cells per well in 96 well white-wall plate. Serial dilutions of 361 were treated next day. At 4 hours of treatment, luminescence signal was determined immediately after adding 150 μg/ml of Luciferin to the well. (See FIG. 12).

CMV reporter = CMV reporter assay (control reporter beside the Ebox reporter); type: cell-based
[2] = Potency code of Table 2 (assay not stated)
[3] = given as numeric bound, read-out: Ebox reporter: IC50
[4] = class symbols, read-out: Ebox reporter: IC50
[5] = class symbols, read-out: Eboc reporter IC50

SMILES | IC50 (CMV reporter) | Potency code [2] | also measured
Cn1nc(-c2ccc(N(Cc3ccc(Cl)cc3)C(=O)c3ccc(F)c(F)c3)cc2O)cc1C(F)(F)F [NUCC-0202707] | > 50 µM |  | IC50 [1, 3]: > 50 µM
Cn1nc(C(F)(F)F)cc1-c1ccc(N(Cc2ccc(Cl)cc2)C(=O)c2cccc(S(C)(=O)=O)c2)cc1O [NUCC-0202705] | > 50 µM |  | IC50 [1, 4]: < 5 µM
COc1ccc(-c2cc(C(F)(F)F)nn2C)c(O)c1-c1ccc(Cl)c(C(F)(F)F)c1 [NUCC-0202429] | > 50 µM |  | IC50 [1, 4]: < 5 µM
Cn1nc(C(F)(F)F)cc1-c1ccc(N(Cc2ccc(Cl)cc2)C(=O)c2ccc(C(F)(F)F)cc2)cc1O [NUCC-0202713] | > 50 µM |  | IC50 [1, 4]: 5 to 10 µM
Cn1nc(C(N)=O)cc1-c1ccc(OCc2ccc(Cl)cc2)c(-c2ccc(Cl)c(C(F)(F)F)c2)c1O [NUCC-0202526] | > 50 µM |  | IC50 [1, 4]: 10 to 50 µM
Cn1nc(C(F)(F)F)cc1-c1ccc(NC(=O)c2ccc(Cl)c(C(F)(F)F)c2)cc1O [NUCC-0202690] | > 50 µM |  | IC50 [1, 4]: < 5 µM
Cn1nc(C(F)(F)F)cc1-c1ccc(OC2CCNCC2)c(-c2ccc(Cl)c(C(F)(F)F)c2)c1O [NUCC-0202431] | 39 µM |  | IC50 [1, 4]: 10 to 50 µM
Oc1cc(CNc2ccc(Cl)c(C(F)(F)F)c2)ccc1-c1cc(C(F)(F)F)n[nH]1 [NUCC-0202993] |  |  | IC50 [1, 5]: 5 to 10 µM; IC50 (CMV reporter; class symbols): 10 to 50 µM
Cn1nc(C(F)(F)F)cc1-c1ccc(OCc2ccc(Cl)cc2)c(-c2ccc(Cl)c(C(F)(F)F)c2)c1Cl [NUCC-0202650] | > 50 µM |  | IC50 [1, 3]: > 50 µM
Cn1nc(-c2ccc(N(Cc3ccc(Cl)cc3)C(=O)c3cncc(F)c3)cc2O)cc1C(F)(F)F [NUCC-0202697] | > 50 µM |  | IC50 [1, 3]: > 50 µM
CCOC(=O)c1cc(-c2ccc(OCc3ccc(Cl)cc3)c(-c3ccc(Cl)c(C(F)(F)F)c3)c2O)[nH]n1 [NUCC-0202530] | > 50 µM |  | IC50 [1, 4]: 10 to 50 µM
CC(Oc1ccc(-c2cc(C(F)(F)F)nn2C)c(O)c1-c1ccc(Cl)c(C(F)(F)F)c1)c1ccc(Cl)cc1 (stereo not drawn) [NUCC-0202418] | > 50 µM |  | IC50 [1, 4]: 5 to 10 µM
O=C(Nc1ccc(Cl)c(C(F)(F)F)c1)c1ccc(-c2cc(C(F)(F)F)n[nH]2)c(O)c1 [NUCC-0202992] |  |  | IC50 [1, 5]: 5 to 10 µM; IC50 (CMV reporter; class symbols): 10 to 50 µM
Oc1cc(OCc2ccc(Cl)cc2)ccc1-c1[nH]nc(C(F)(F)F)c1Oc1ccc(Cl)c(F)c1 [NUCC-0202536] | 44 µM |  | IC50 [1, 4]: 5 to 10 µM
COc1c(C(F)(F)F)n[nH]c1-c1ccc(OCc2ccc(Cl)cc2)cc1O [NUCC-0202639] | 32 µM |  | IC50 [1, 4]: 5 to 10 µM
Cc1cc(-c2ccc(OCc3ccc(Cl)cc3)c(-c3ccc(Cl)c(C(F)(F)F)c3)c2O)nn1C [NUCC-0202534] | > 50 µM |  | IC50 [1, 3]: > 50 µM
Cn1nc(-c2ccc(OC3CCNCC3)c(-c3ccc(Cl)c(C(F)(F)F)c3)c2O)cc1C(F)(F)F [NUCC-0202432] | 28 µM |  | IC50 [1, 4]: 10 to 50 µM
Oc1cc(OCc2ccc(Cl)cc2)ccc1-c1[nH]nc(C(F)(F)F)c1Oc1ccc(F)c(Cl)c1 [NUCC-0202636] | 41 µM |  | IC50 [1, 4]: 5 to 10 µM
Cn1nc(C(F)(F)F)cc1-c1ccc(OCc2ccc(Cl)cc2)c(-c2ccc(Cl)c(C(F)(F)F)c2)n1 [NUCC-0202640] | > 50 µM |  | IC50 [1, 3]: > 50 µM
COc1cccc(C(=O)N(Cc2ccc(Cl)cc2)c2ccc(-c3cc(C(F)(F)F)nn3C)c(O)c2)c1 [NUCC-0202698] | > 50 µM |  | IC50 [1, 4]: 5 to 10 µM
O=C(c1ccc(C(F)(F)F)c(Cl)c1)N(Cc1ccc(Cl)cc1)c1ccc(-c2cc(C(F)(F)F)n[nH]2)c(O)c1 [NUCC-0202434] | 40 µM |  | IC50 [1, 4]: < 5 µM

SMILES | IC50 (CMV reporter) | Potency code [2] | also measured
CN(C)C(=O)c1cc(-c2ccc(OCc3ccc(Cl)cc3)c(-c3ccc(Cl)c(C(F)(F)F)c3)c2O)[nH]n1 [NUCC-0202523] | > 50 µM |  | IC50 [1, 3]: > 50 µM
Cn1nc(-c2ccc(N(Cc3ccc(Cl)cc3)C(=O)c3ccnc(C(F)(F)F)c3)cc2O)cc1C(F)(F)F [NUCC-0202696] | > 50 µM |  | IC50 [1, 3]: > 50 µM
COc1ccccc1-c1cn(C)nc1-c1ccc(OCc2ccc(Cl)cc2)cc1O [NUCC-0198358] |  | + (>40 +) | 
Cn1nc(C(F)(F)F)cc1-c1ccc(OCc2ccc(Cl)cc2)cc1O [NUCC-0198412] |  | + (>40 +) | 
Cn1nc(C(F)(F)F)cc1-c1ccc(OCc2ccc(Cl)cc2)c(Br)c1O [NUCC-0198407] |  | +++ (10-30 +++) | 
CCCCOc1ccc(-c2cc(C(F)(F)F)n[nH]2)c(O)c1-c1ccc(Cl)c(C(F)(F)F)c1 [NUCC-0201225] |  | + (>40 +) | 
COc1ccc(-c2c(-c3ccc(O)cc3O)n[nH]c2C(F)(F)F)cc1OC [NUCC-0200496] |  | + (>40 +) | 
Cn1nc(C(F)(F)F)c(-c2ccccc2)c1-c1ccc(OCc2ccc(Cl)cc2)cc1O [NUCC-0198296] |  | + (>40 +) | 
Oc1ccccc1-c1cc(C(F)(F)F)n[nH]1 [NUCC-0200574] |  | + (>40 +) | 
Cn1nc(-c2ccc(OCc3ccc(Cl)cc3)c(-c3cccc(C(F)(F)F)c3)c2O)cc1C(F)(F)F [NUCC-0200731] |  | + (>40 +) | 
CCCCOc1ccc(-c2cc(C(F)(F)F)nn2C)c(O)c1-c1cc(C(F)(F)F)cc(C(F)(F)F)c1 [NUCC-0201651] |  | + (>40 +) | 
C#CCC(N=[N+]=[N-])C(=O)Nc1ccc(COc2ccc(-c3cc(C(F)(F)F)nn3C)c(O)c2-c2cncc(C(F)(F)F)c2)cc1 (stereo not drawn) [NUCC-0201698] |  | + (>40 +) | 
Cn1nc(C(F)(F)F)cc1-c1ccc(OCc2ccc(Cl)cc2)cc1CO [NUCC-0200978] |  | + (>40 +) | 
Cn1nc(-c2ccc(Nc3ccc4c(c3)OCO4)cc2O)cc1C(F)(F)F [NUCC-0200562] |  | + (>40 +) | 
CCCOc1ccc(-c2cc(C(F)(F)F)n[nH]2)c(O)c1-c1cc(C(F)(F)F)cc(C(F)(F)F)c1 [NUCC-0201197] |  | +++ (10-30 +++) | 
Oc1cc(OCc2ccncc2)ccc1-c1n[nH]cc1Oc1ccccc1 [NUCC-0176251] |  | + (>40 +) | 
Oc1c(-c2cc(C(F)(F)F)[nH]n2)ccc(OCc2ccc(Cl)cc2)c1-c1cccc(C(F)(F)F)c1 [NUCC-0200730] |  | + (>40 +) | 
Cn1nc(-c2ccc(OCc3ccc(Cl)cc3)c(-c3ccc(F)cc3)c2O)cc1C(F)(F)F [NUCC-0196348] |  | +++ (10-30 +++) | 
CCc1[nH]nc(-c2ccc(OCc3ccc(Cl)cc3)cc2O)c1-c1ccccc1 [NUCC-0198301] |  | + (>40 +) | 
Oc1ccc(-c2cc(C(F)(F)F)[nH]n2)c(O)c1-c1cc(C(F)(F)F)cc(C(F)(F)F)c1 [NUCC-0200495] |  | ++++ (<10 ++++) | 
Cc1cc(C)cc(-c2c[nH]nc2-c2ccc(OCc3ccc(Cl)cc3)cc2O)c1 [NUCC-0198352] |  | + (>40 +) | 

SMILES | IC50 (CMV reporter) | Potency code [2] | also measured
Cn1cc(-c2cn(C)nc2-c2ccc(OCc3ccc(Cl)cc3)cc2O)cn1 [NUCC-0198362] |  | + (>40 +) | 
COc1ccc(-c2c(-c3ccc(OCc4ccc(Cl)cc4)cc3O)nn(C)c2C(F)(F)F)cc1 [NUCC-0196340] |  | ++ (30-40 ++) | 
Nc1ccc(COc2ccc(-c3cc(C(F)(F)F)n[nH]3)c(O)c2-c2cc(C(F)(F)F)cc(C(F)(F)F)c2)cc1 [NUCC-0201201] |  | ++++ (<10 ++++) | 
COc1ccc(CCOc2ccc(-c3cc(C(F)(F)F)nn3C)c(O)c2-c2cc(C(F)(F)F)cc(C(F)(F)F)c2)cc1 [NUCC-0201028] |  | + (>40 +) | 
CCCCOc1ccc(-c2cc(C(F)(F)F)nn2C)c(O)c1-c1cncc(C#N)c1 [NUCC-0201638] |  | + (>40 +) | 
Cn1cc(-c2ccc(OCc3ccc(Cl)cc3)cn2)c(C(F)(F)F)n1 [NUCC-0200741] |  | + (>40 +) | 
Cn1nc(-c2ccc(OCc3ccc(Cl)cc3)c(-c3cncc(C#N)c3)c2O)cc1C(F)(F)F [NUCC-0201633] |  | + (>40 +) | 
CCc1ccc(Oc2c(-c3ccc(OCCc4ccc(Cl)cc4)cc3O)nn(C)c2C(F)(F)F)cc1 [NUCC-0196356] |  | + (>40 +) | 
CC(C)CCOc1ccc(-c2cc(C(F)(F)F)nn2C)c(O)c1-c1cncc(C(F)(F)F)c1 [NUCC-0201206] |  | ++++ (<10 ++++) | 
Cn1nc(C(F)(F)F)cc1-c1ccc(OCc2ccc(Cl)cc2)cc1C(N)=O [NUCC-0200816] |  | + (>40 +) | 
Cn1nc(C(F)(F)F)cc1-c1ccc(OCCc2ccc(Cl)cc2)c(-c2cc(C(F)(F)F)cc(C(F)(F)F)c2)c1O [NUCC-0201025] |  | ++ (30-40 ++) | 
Oc1c(-c2cc(C(F)(F)F)[nH]n2)ccc(OCc2ccc(Cl)cc2)c1-c1ccc(C(F)(F)F)cc1 [NUCC-0200725] |  | + (>40 +) | 
Oc1c(-c2cc(C(F)(F)F)[nH]n2)ccc(OCc2ccc(Cl)cc2)c1-c1ccc(C(F)(F)F)cc1Cl [NUCC-0200737] |  | + (>40 +) | 
COc1ccc(-c2c(C)nn(C)c2-c2ccc(OCc3ccc(Cl)cc3)cc2O)cc1 [NUCC-0198306] |  | + (>40 +) | 
C#CCOc1cccc2c1C(=O)N(C1CCC(=O)NC1=O)C2=O (stereo not drawn) [NUCC-0201705] |  | + (>40 +) | 
NC(=O)c1ccc(-c2c(OCc3ccc(Cl)cc3)ccc(-c3cc(C(F)(F)F)[nH]n3)c2O)cc1 [NUCC-0198394] |  | ++ (30-40 ++) | 
CCCCOc1ccc(-c2cc(C(F)(F)F)nn2C)c(O)c1-c1ccc(Cl)c(C(C)(C)F)c1 [NUCC-0201226] |  | +++ (10-30 +++) | 
C#CCC(N=[N+]=[N-])C(=O)NCCCOc1ccc(-c2cc(C(F)(F)F)nn2C)c(O)c1-c1ccc(Cl)c(C(F)(F)F)c1 (stereo not drawn) [NUCC-0201695] |  | + (>40 +) | 
CCc1ccc(Oc2c(-c3ccc(OCCc4ccc(Cl)cc4)cc3O)n[nH]c2C(F)(F)F)cc1 [NUCC-0196357] |  | +++ (10-30 +++) | 
